Measurements reported in patent US20210395242A1, “HETEROCYCLIC COMPOUNDS AS AHR MODULATORS” (JAGUAHR THERAPEUTICS PTE LTD, priority 2018, published 2021).

Assays:
CYP1A1 = target: T1, CYP1A1 (Homo sapiens, UniProt P04798); assay: CYP1A1 inhibition assay (Promega P450-Glo, Cypex CYP1A1 bactosomes); format: biochemical; settings: Luciferin-CEE 30 μM, 0.2 mM NADPH, 37° C. 10 minutes, arithmetic mean of pIC50
T1 construct: purchased Cypex
T1 sequence (P04798 1-512): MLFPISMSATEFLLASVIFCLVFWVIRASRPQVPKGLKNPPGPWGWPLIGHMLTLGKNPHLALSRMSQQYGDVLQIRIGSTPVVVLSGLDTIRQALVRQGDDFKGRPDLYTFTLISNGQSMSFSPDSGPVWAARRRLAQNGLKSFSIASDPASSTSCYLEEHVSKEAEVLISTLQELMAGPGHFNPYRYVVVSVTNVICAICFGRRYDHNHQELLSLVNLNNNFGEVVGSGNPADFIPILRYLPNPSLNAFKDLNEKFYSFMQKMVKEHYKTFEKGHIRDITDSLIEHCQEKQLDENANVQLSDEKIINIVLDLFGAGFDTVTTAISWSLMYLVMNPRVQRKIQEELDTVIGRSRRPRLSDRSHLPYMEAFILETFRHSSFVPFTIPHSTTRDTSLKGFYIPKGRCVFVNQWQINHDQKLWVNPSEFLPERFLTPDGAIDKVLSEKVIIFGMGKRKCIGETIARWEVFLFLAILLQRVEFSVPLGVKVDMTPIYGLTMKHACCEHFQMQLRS
Description: (§1) The compounds of the examples were tested in selected biological assays two or more times. Data are reported as the arithmetic mean of the pIC50 (−log10IC50) values, where IC50 is defined as the concentration of compound producing a 50% inhibition of the agonist (KYNA) response.
In vitro assay 2: CYP1A1 inhibition assay The direct CYP1A1 inhibitory activity of test compounds was also assessed using the Promega P450-Glo™ assay system. Seven concentrations of test compound were added to a ½ area white 96 well plate. Cypex CYP1A1 bactosomes ([final] 0.5 pmol) and CYP1A1 substrate Luciferin-CEE ([final] 30 μM) were prepared in 0.1M potassium phosphate buffer and incubated with test compounds at 37° C. for 5 minutes. 0.2 mM NADPH was then added to the plates and incubated at 37° C., for 10 minutes. The reaction was stopped by adding luciferin detection reagent and luminescence was read after 20 minutes.

AhR = target: T2, AhR (Homo sapiens, UniProt P35869); assay: AhR antagonism in U937 cells (Promega P450-Glo assay); format: cell-based; settings: inhibition of 300 μM KYNA response, 24 hrs, CYP1A1 activity readout (Luciferin-CEE), arithmetic mean of pIC50
T2 construct: endogenous in cells; host or cells: U937 cells
T2 sequence (P35869 11-848): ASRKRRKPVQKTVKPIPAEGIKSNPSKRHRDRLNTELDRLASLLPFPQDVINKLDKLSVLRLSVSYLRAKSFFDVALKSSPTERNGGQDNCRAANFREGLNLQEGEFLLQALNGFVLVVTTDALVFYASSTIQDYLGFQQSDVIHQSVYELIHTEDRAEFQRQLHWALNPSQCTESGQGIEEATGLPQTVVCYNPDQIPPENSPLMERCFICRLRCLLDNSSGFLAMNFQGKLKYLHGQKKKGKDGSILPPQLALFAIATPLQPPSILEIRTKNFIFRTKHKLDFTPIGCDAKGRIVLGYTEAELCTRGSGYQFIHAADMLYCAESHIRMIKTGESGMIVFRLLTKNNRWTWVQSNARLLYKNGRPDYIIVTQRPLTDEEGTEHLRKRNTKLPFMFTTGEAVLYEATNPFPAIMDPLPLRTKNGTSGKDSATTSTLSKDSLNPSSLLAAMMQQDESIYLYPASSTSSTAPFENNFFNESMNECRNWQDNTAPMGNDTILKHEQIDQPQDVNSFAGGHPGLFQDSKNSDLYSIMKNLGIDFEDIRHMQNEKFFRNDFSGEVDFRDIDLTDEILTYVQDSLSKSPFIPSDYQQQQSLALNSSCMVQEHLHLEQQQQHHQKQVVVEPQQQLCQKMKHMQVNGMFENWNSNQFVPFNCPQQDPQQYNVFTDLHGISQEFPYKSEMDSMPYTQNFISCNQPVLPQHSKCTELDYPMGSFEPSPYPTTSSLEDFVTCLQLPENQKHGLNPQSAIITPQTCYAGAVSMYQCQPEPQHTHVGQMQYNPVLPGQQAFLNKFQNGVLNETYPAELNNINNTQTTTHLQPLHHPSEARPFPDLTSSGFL
Description: as §1
In Vitro Assay 1: AhR Antagonism in U937 Cells (Promega P450-Glo™ Assay)
AhR antagonism was assessed in U937 cells (myeloid lineage cell line derived from a human histiocytic lymphoma). Ligand binds the AhR in the cytoplasm, and the AhR-ligand complex translocates to the nucleus and forms a heterodimer with AhR nuclear translocator (Arnt). This complex binds the xenobiotic response element (XRE) in the 5′ upstream region of the CYP1A1 promoter, enhancing CYP1A1 expression. CYP1A1 activity is subsequently determined by assessing the conversion of Luciferin-CEE to luciferin, which in turn reacts with luciferase to produce light. The amount of light produced is directly proportional to cytochrome P450 activity. U937 cells in Ultraculture serum free media (Lonza) were plated at 100,000 cells per well in a round bottom 96 well tissue culture plate. Seven concentrations of test compound (final [DMSO]1%) were added and incubated for 10 minutes before the addition of 300 μM KYNA. The plates were then placed in an incubator at 37° C., >85% humidity, 5% CO2 for 24 hrs. After aspiration of the supernatant the CYP1A1 substrate Luciferin-CEE ([Final] 83 μM) was added and incubated for 3 hrs before the reaction was stopped by adding luciferin detection reagent and luminescence was read after 20 minutes.

Structure (SMILES) | IC50 (CYP1A1) | IC50 (AhR)
CNC(=O)c1cccc2nc(-c3ccc(NC(=O)c4ccnn4C)cc3)oc12 [Example 4, N-methyl-2-(4-(1-methyl-1H-pyrazole-5-carboxamido)phenyl) benzo[d]oxazole-7-carboxamide] | 1000 nM | 79.4 nM
Cn1nccc1C(=O)Nc1ccc(-c2nc3cccc(C(N)=O)c3o2)cc1 [Example 14, 2-(4-(1-methyl-1H-pyrazole-5-carboxamido)phenyl) benzo [d]oxazole-7-carboxamide] | 2510 nM | 200 nM
COCCn1nccc1C(=O)Nc1ccc(-c2nc3ccccc3o2)cc1 [Example 2, N-(4-(benzo[d]oxazol-2-yl)phenyl)-1-(2-methoxyethyl)-1H-pyrazole-5-carboxamide] | 794 nM | 100 nM
Cc1cccc2oc(-c3ccc(NC(=O)c4ccnn4C)cc3)nc12 [Example 17, 1-methyl-N-(4-(4-methylbenzo[d]oxazol-2-yl)phenyl)-1H-pyrazole-5-carboxamide] | 1000 nM | 31.6 nM
Cn1nccc1C(=O)Nc1ccc(-c2nc3cccc(CO)c3o2)cc1 [Example 13, N-(4-(7-(hydroxymethyl)benzo[d]oxazol-2-yl)phenyl)-1-methyl-1H-pyrazole-5-carboxamide] | 794 nM | 100 nM
Cn1nccc1C(=O)Nc1ccc(-c2nc3cccc(C#N)c3o2)cc1 [Example 16, N-(4-(7-Cyanobenzo[d]oxazol-2-yl)phenyl)-1-methyl-1H-pyrazole-5-carboxamide] | 2510 nM | 15.8 nM
Cc1cccc2nc(-c3ccc(NC(=O)c4ccnn4C)cc3)oc12 [Example 6, 1-methyl-N-(4-(7-methylbenzo[d]oxazol-2-yl)phenyl)-1H-pyrazole-5-carboxamide] | 631 nM | 39.8 nM
Cc1nc(-c2ccc(NC(=O)c3ccnn3C)cc2)oc1C [Example 5, N-(4-(4,5-dimethyloxazol-2-yl)phenyl)-1-methyl-1H-pyrazole-5-carboxamide] | 1000 nM | 15.8 nM
Cn1nccc1C(=O)Nc1ccc(-c2nc3cccc(Cl)c3o2)cc1 [Example 11, N-(4-(7-chlorobenzo[d]oxazol-2-yl)phenyl)-1-methyl-1H-pyrazole-5-carboxamide] | 794 nM | 12.6 nM
Cc1cc(NC(=O)c2ccnn2C)ccc1-c1nc2c(C)cccc2o1 [Example 23, 1-methyl-N-(3-methyl-4-(4-methylbenzo[d]oxazol-2-yl)phenyl)-1H-pyrazole-5-carboxamide] | 1260 nM | 17.4 nM
COC(=O)c1cccc2nc(-c3ccc(NC(=O)c4ccnn4C)cc3)oc12 [Example 3, methyl 2-(4-(1-methyl-1H-pyrazole-5-carboxamido)phenyl) benzo[d]oxazole-7-carboxylate] | 1260 nM | –
Cc1cc(NC(=O)c2ccon2)ccc1-c1nc2ccccc2o1 [Example 7, N-(4-(benzo[d]oxazol-2-yl)-3-methylphenyl)isoxazole-3-carboxamide] | 631 nM | 79.4 nM
COCCn1nccc1C(=O)Nc1ccc(-c2nc3cccc(C)c3o2)cc1 [Example 24, 1-(2-methoxyethyl)-N-(4-(7-methylbenzo[d]oxazol-2-yl)phenyl)-1H-pyrazole-5-carboxamide] | 631 nM | 63.1 nM
CCNC(=O)c1cccc2nc(-c3ccc(NC(=O)c4ccnn4C)cc3)oc12 [Example 15, N-Ethyl-2-(4-(1-methyl-1H-pyrazole-5-carboxamido)phenyl) benzo[d]oxazole-7-carboxamide] | 1000 nM | 398 nM

Now those with a lower IC50 (CYP1A1), led by results:

IC50 (CYP1A1) | IC50 (AhR) | Structure (SMILES)
316 nM | 50.1 nM | Cn1nccc1C(=O)Nc1ccc(-c2nc3ccccc3s2)cc1 [Example 21, N-(4-(benzo[d]thiazol-2-yl)phenyl)-1-methyl-1H-pyrazole-5-carboxamide]
316 nM | 145 nM | Cn1nccc1C(=O)Nc1ccc(-c2nc3cccc(Cl)c3[nH]2)cc1 [Example 19, N-(4-(7-chloro-1H-benzo[d]imidazol-2-yl)phenyl)-1-methyl-1H-pyrazole-5-carboxamide]
282 nM | 79.4 nM | Cc1cc(NC(=O)c2ccon2)ccc1-c1nc2cccc(C)c2o1 [Example 8, N-(3-methyl-4-(7-methylbenzo[d]oxazol-2-yl)phenyl) isoxazole-3-carboxamide]
251 nM | 63.1 nM | CCn1c(-c2ccc(NC(=O)c3ccnn3C)cc2)nc2ccccc21 [Example 1, N-(4-(1-ethyl-1H-benzo[d]imidazol-2-yl)phenyl)-1-methyl-1H-pyrazole-5-carboxamide]
251 nM | 363 nM | Cn1nccc1C(=O)Nc1ccc(-c2nc3cccc(C(C)(C)O)c3o2)cc1 [Example 18, N-(4-(7-(2-hydroxypropan-2-yl)benzo[d]oxazol-2-yl)phenyl)-1-methyl-1H-pyrazole-5-carboxamide]
251 nM | 50.1 nM | Cn1nccc1C(=O)Nc1ccc(-c2nc3cccc(C(=O)NCCc4c[nH]c5ccccc45)c3o2)cc1 [Example 12, N-(2-(1H-indol-3-yl)ethyl)-2-(4-(1-methyl-1H-pyrazole-5-carboxamido)phenyl)benzo[d]oxazole-7-carboxamide]
224 nM | 158 nM | Cn1nccc1C(=O)Nc1ccc(-c2nc3ccccc3[nH]2)cc1 [Example 20, N-(4-(1H-benzo[d]imidazol-2-yl)phenyl)-1-methyl-1H-pyrazole-5-carboxamide]
200 nM | 25.1 nM | Cn1nccc1C(=O)Nc1ccc(-c2nc3ccccc3o2)cc1 [Example 10, N-(4-(benzo[d]oxazol-2-yl)phenyl)-1-methyl-1H-pyrazole-5-carboxamide]
200 nM | 7.94 nM | Cc1cc(NC(=O)c2ccnn2C)ccc1-c1nc2ccccc2o1 [Example 22, N-(4-(benzo[d]oxazol-2-yl)-3-methylphenyl)-1-methyl-1H-pyrazole-5-carboxamide]
158 nM | 7.94 nM | Cc1cc(NC(=O)c2ccnn2C)ccc1-c1nc2cccc(C)c2o1 [Example 9, 1-methyl-N-(3-methyl-4-(7-methylbenzo[d]oxazol-2-yl)phenyl)-1H-pyrazole-5-carboxamide]
